Structures are written as SMILES. Read-outs that look alike come from different tables or passages of the source.

One data set relates to beet armyworm. Put plainly: Beet Armyworm control under field conditions on Chinese kale. It is filed as in vivo. Particulars: 300 g of tebufenozide per hectare, compared to untreated control plot. As for the experimental part:
Each of two different plots of Chinese kale grown under typical field conditions was treated with one of the two tebufenozide formulations described above at an application rate of 300 g of tebufenozide per hectare in 750 liters of water per hectare. The percent beet armyworm mortality in each plot was compared to an untreated control plot.

The test system of a further data set is Beet Armyworm larvae. Put plainly: Beet Armyworm control on potted rice plants using tebufenozide. It counts as in vivo. From the text:
Rice plants grown in pots were sprayed with one of two different versions of a 300 parts per million (based on active ingredient level) suspension of tebufenozide in water. In one version, the tebufenozide was supplied as Mimic® 10 W insecticide, a wettable powder, from Rohm and Haas Company. In the second version, approximately 30% by weight of the carrier in the Mimic® 10 W insecticide was replaced with Powder V from the above examples and approximately 10% by weight of the clay carrier was replaced by Aerosol®OTB surfactant. One portion of each of the sprayed plant samples was subjected to approximately 25 millimeters of water applied by a spray bar to simulate rain. The plants were cut and fed to Beet Armyworm larvae. Percent mortality was then evaluated.

The format of data set [1] is physicochemical. The method, then: One method to evaluate the efficacy of a pesticide adjuvant is to measure its affect on the ability of the pesticide composition to resist wash-off from a surface. One skilled in the art will recognize that a pesticide which remains on the surface of a plant will be expected to have increased efficacy.
A suspension of the pesticide formulation was prepared by adding a premix of water and surfactant, with and without the polymer additives, followed by vigorous shaking of the mixtures by hand. Pieces of Parafilm™M laboratory film, a very soft, flexible, and hydrophobic film, were taped to plastic petrie dishes. The suspensions were sprayed with an automated sprayer as the petrie dishes with attached film were moved at a standard rate below the sprayer. The spray residues were allowed to dry, and a second application of spray was applied. One set of films was exposed, at an inclination of 45 degrees, to approximately 25 mm of water applied by a spray bar (equipped with TX-4 cone-type spray nozzles) that moved back and forth over the samples for a period of about 1 hour. The exposed films were allowed to dry. Another set of films was not exposed to water.
Infra-red spectra of the films were obtained by an Attenuated Total Reflection (ATR) technique. The films were pressed against a Zinc Selenide crystal that had been cleaned previously with methanol. Spectra were recorded with a Spectratech Allied Systems Fourier Transform Infra-Red Spectrometer, and stored in a computer. Peaks associated with pesticide residue were identified by inspection and peak areas were calculated by computer (Pesticide Peak Area, “PA”). A corresponding area for a Parafilm™ peak as similar as possible in peak location and size (in the same spectrum) was calculated (Film Peak Area, “FA”). […] A measure of the pesticide on the surface “P” was derived from the following calculation:
A relative measure of the amount of pesticide remaining after the above exposure to water was then derived from the following calculation: [formula]
Although the intensity of spectral peaks recorded with the ATR technique are very dependent on details of contact with the film, by obtaining a ratio of the pesticide peak to the film peak in the same spectral recording, different spectra can be compared with details of contact being compensated for, since they will have similar effects on the intensity of the pesticide absorption and the film absorption. The intensity of the pesticide peak relative to the film peak will depend on the degree of coverage of the film by the pesticide. To maximize coverage, the spraying was conducted twice. Furthermore, a wetting agent (surfactant) was included in the premix to promote wetting of the film by the spray droplets. Since exposure to water can result in re-distribution of the pesticide as well as wash-off of the pesticide, the measure of the amount remaining is only relative.
In all cases, a measured amount of pesticide was mixed with 270 grams of deionized water and 30 grams of 0.5% Silwet L-77 surfactant. This premix was divided into 50 gram portions. One portion was sprayed without adding polymer. For mixes containing polymer, 66.6 milligrams powder polymer or 1.32 g of a 5% solids dilution of the emulsion polymer were added to the 50 grams of premix.
TX-2 nozzle 12 inches above laboratory film.
58 psi (delivers 150 cc/minute).
Laboratory film moves at 1 mile/hour.
Fan nozzle 14 inches above laboratory film.
29 psi (Spray 15 cc with two passes over laboratory film at a rate to give 25 gallons/acre).

`CCc1ccc(C(=O)NN(C(=O)c2cc(C)cc(C)c2)C(C)(C)C)cc1` [tebufenozide]: the “Beet Armyworm Control (%)” value with beet armyworm was found to be 35%. For the same compound, the “Beet Armyworm Mortality (%)” value in the data set with Beet Armyworm larvae (With Rain (approximately 25 millimeters of water by spray bar), 300 parts per million suspension) was 28%; in the data set with Beet Armyworm larvae (Without Rain, rice plants sprayed with 300 parts per million suspension), 90%. Also, the “% AI Retained After One Inch Spray-Bar Rain, M (mean)” value was 40% in data set [1] (No Polymer); 59% in data set [1] (with Emulsion IV); 71% in data set [1] (with Powder I); 67% in data set [1] (with Powder II); 40% in data set [1] (with Powder III).

The values above are taken from patent US6436421B1, “Pesticide compositions” (priority 1997, dated 2002).
